Results: ChEMBL document CHEMBL1221397, “Bioassay-guided isolation of the antidiabetic principle from Sorbus decora (Rosaceae) used traditionally by the Eeyou Istchee Cree First Nations” (J Nat Prod, 2010)

Test system: C2C12
Assay: Induction of [3H]2-deoxy-D-glucose uptake in mouse C2C12 cells after 18 hrs by scintillation counting
Assay type: functional, cell-based

EC50: 1470 nM
SMILES: C=C(C)[C@@H]1CC[C@]2(CO)CC[C@]3(C)[C@H](CC[C@@H]4[C@@]5(C)CC[C@H](OC(=O)/C=C/c6ccc(O)c(O)c6)[C@@](C)(CO)[C@@H]5CC[C@]43C)[C@@H]12
